# Results reported in patent US20250221953A1 (The University of Chicago, priority 2022, published 2025).
# Experiments:
# influenza virus = test: Influenza virus challenge of mice; assay type: in vivo, mouse
# Text: Control mice were born by mothers on normal diet, followed by normal milk feeding and normal diet since weaning.
# [1] = tested on: anti-human CD19-CD28z-GFP CAR T cells; test: CAR-T cell expansion assay; assay type: cell-based; conditions: 20 μM TVA
# [2] = tested on: mouse primary CD8^+ T cells; test: In vitro function of activated mouse primary CD8+ T cells (cytokines, Ki-67, apoptosis, p-CREB); assay type: cell-based
# Procedure: For experiments with live/dead criteria, cells were first stained with Fixable Viability Dyes (FVD) (Thermo Fisher Scientific) according to the manufacturer's instructions. Subsequent surface marker staining was performed in Flow Cytometry Staining Buffer (Thermo Fisher Scientific). Intracellular staining for flow panels containing nuclear proteins was performed using the eBioscience FoxP3/Transcription Factor Staining Buffer Set (Thermo Fisher Scientific) according to the manufacturer's instructions. For intracellular staining of cytoplasmic proteins, the Fixation/Permeabilization Solution Kit (BD Biosciences) was used according to the manufacturer's instructions. […] The cell pellets were washed again with FACS buffer, centrifuged at 300×g for 5 minutes, and incubated with antibodies in FACS buffer for 45 minutes-1 hour at room temperature. […] Treatment with sulfosuccinimidyl oleate (SSO) was performed by incubating cells with 100 μM SSO for 24 hours.
# [3] = tested on: tumor-infiltrating CD8^+ T cells
# Procedure: After incubation at 37° C. for 25 min on a shaking platform, the digested tumor tissues were transferred into a 70 μm mesh nylon strainer on a 50 mL conical tube, pushed through the strainer using the rubber end of a syringe plunger, and rinsed with the recommended medium. After centrifugation at 300×g for 10 min at room temperature with the brake on low, the resulting cell pellets were added 10 mL of ammonium chloride solution for incubation at room temperature for 5 minutes, followed by centrifugation at 300×g for 10 minutes at room temperature with the brake on low.
# Freshly excised mouse tumor tissues were minced into small pieces (volume smaller than 1 mm^3) by scissors in PBS, digested by Collagenase IV (1 mg/mL) and DNase I (200 U/mL) at 37° C. for 20 minutes in PBS with gentle rocking. The digested tumor tissues were added 5 times volume 0.01M EDTA, filtered into new tube through 200 mesh screen (100 μm strainer), and then centrifuged at 300×g for 5 minutes at room temperature. The resulting cell pellets were re-suspended with 3 mL PBS, laid gently on 3 mL lymphocytes isolation liquid (pre-warmed to room temperature), and subjected to density gradient centrifugation (300×g, 30 minutes, room temperature, accelerate 6, decelerate 2). The middle layer of cells was moved carefully to a new tube, added PBS to 15 mL, and centrifuged (300×g, 10 minutes, room temperature). The cell pellets (lyse red cells if necessary) were designated tumor-infiltrating lymphocytes and used for following experiments.
# Mouse spleens were disrupted with syringe plunger in 1 mL PBS in a 40 μm strainer filtered to a 15 mL tube, washed with PBS and centrifuged at 300×g for 5 minutes. The resulting cell pellets were re-suspended the with 2 mL red cell lysis buffer (Invitrogen), incubated at room temperature for 10 minutes, and centrifuged at 300×g for 5 minutes after adding 13 mL PBS. The resulting cell pellets was designated splenocytes and used for following experiments.
# Draining lymph nodes were disrupted with syringe plunger in 1 mL PBS in a 40 μm strainer filtered to a 15 mL tube, washed with PBS, and centrifuged at 300×g for 5 minutes. The resulting cell pellets was designated LN Lymphocytes and used for following experiments.
# Mouse primary cells isolated from tumor, spleen, draining lymph node were stained with fluorescent antibodies and analyzed by flow cytometry.
# For experiments with live/dead criteria, cells were first stained with Fixable Viability Dyes (FVD) (Thermo Fisher Scientific) according to the manufacturer's instructions. Subsequent surface marker staining was performed in Flow Cytometry Staining Buffer (Thermo Fisher Scientific). Intracellular staining for flow panels containing nuclear proteins was performed using the eBioscience FoxP3/Transcription Factor Staining Buffer Set (Thermo Fisher Scientific) according to the manufacturer's instructions. For intracellular staining of cytoplasmic proteins, the Fixation/Permeabilization Solution Kit (BD Biosciences) was used according to the manufacturer's instructions.
# For phospho antibody staining, cells were incubated with FVD (cell viability dye) for 15 minutes at room temperature in a tube, re-suspended with 200 μL pre-warmed 1×BD Phosflow Lyse/Fix buffer directly into the tube, and incubated at 37° C. for 10-15 minutes, followed by centrifugation at 300×g for 5 minutes. The resulting cell pellets were washed once with FACS buffer, permeabilized with 200 μL of BD Phosflow Perm Buffer III for 45 minutes on ice, and centrifuged at 300×g for 5 minutes.
# Mouse CD4^+ T cell = test: Second screen: IL-2 level of mouse CD4+ T cells
# Mouse CD8^+ T cell = test: Second screen: IL-2 level of mouse CD8+ T cells
# primary CD4^+ T cells = test: In vitro function of activated mouse primary CD4+ T cells; assay type: cell-based; conditions: TVA treatment in vitro
# [4] = tested on: mouse primary CD8^+ T cells; test: cAMP level; assay type: cell-based; conditions: 20 μM TVA; 0, 20 minutes, 40 minutes, 2 hours
# [5] = tested on: mouse primary CD8^+ T cells; test: Phospho antibody array; assay type: cell-based
# Procedure: The quantification for pixel density in each spot of the array was carried out by subtracting background signals from the spot intensity using software ImageJ (ImageJ, RRID: SCR_003070). Please also refer to Resources Table and Table 6 for more details.
# [6] = tested on: tumor infiltrating immune cells; test: Tumor immune cell analysis (macrophages, CD8, Tregs, DCs); assay type: in vivo; conditions: TVA treatment
# colon tumors = test: Colon tumorigenesis in Apc+/fl; Cdx-2P-Cre-NLS mice; assay type: in vivo, mouse; conditions: gavage TVA 35 mg/kg bw daily×5 days for 4 wks; lipid rich diet
# human CD8^+ T cells = test: KAS-seq, human CD8+ T cells; assay type: cell-based; conditions: 20 μM TVA, 20 min-2 h
# Procedure: 500 mM N3-kethoxal was then supplemented into the media followed by brief, vigorous shaking to fully homogenize the solution. The 6-well plates were then moved into the cell incubator (37° C., 5% CO2) for 10 minutes to promote labeling of genomic single-stranded DNA (ssDNA). Cell suspensions were then transferred to 15 mL conical tubes and centrifuged at 300×g for 5 minutes at 4° C. The supernatant media was discarded, and genomic DNA was then extracted. […] Dual index libraries were constructed for high throughput sequencing using an Accel-NGS Methyl-seq DNA library kit and then sequenced at the Genomics Facility (University of Chicago) via Illumina NovaSeq 6000 (SP flowcell, 100 bp cassette) in two separate runs. […] M. musculus and H. sapiens CD8^+ T cell KAS-seq data were assessed separately.
compound,measurement,setting,value
"CCCCCC/C=C/CCCCCCCCCC(=O)O [TVA, trans-vaccenic acid]",survival after influenza virus challenge,"influenza virus; TVA exposure during fetal and infant stages, TVA diet since weaning",significantly increased survival
same,"immune responses to viral exposure, male vs female",influenza virus; TVA mice,better immune responses to viral exposure compared to female TVA mice
same,in vitro expansion of CAR T cells,[1]; 3 lymphoma patients with age between 42 and 47,improves in vitro expansion
same,in vitro expansion of CAR T cells,[1]; elder patient,do not respond to TVA treatment
same,TVA wash-off assay (TVAc vs TVAw),[2]; 20 μM TVA 48 hours vs 24 hours then medium without TVA,effects are reversible
same,"p-CREB level in CD8+ T cells, increasing concentrations","[2]; 8-Bromo-cAMP 0.01-100 μM or TVA 10-1000 μM, 24 hours",dose-dependent manner
same,reversal of SCFA-dependent suppression on CD8+ T cells,[2]; TVA 20 μM with SCFA agonists,able to reverse SCFA-dependent suppression on CD8^+ T cells
same,phosphorylation level of Lck (p-Lck) in CD8+ T cells,[2]; TVA treatment,does not alter phosphorylation level of Lck
same,phosphorylation of CREB in CD8+ T cells,[2]; TVA treatment,promotes phosphorylation of CREB
same,TNF-α and IFN-γ expression of primary CD8+ T cells,[2]; TVA treatment in vitro,increased expression of TNF-α and IFN-γ
same,suppression of CD8+ T cells by pre-treatment with 20 mM acetate (acetate first),"[2]; acetate 12 hours, then TVA 20 μM 12 hours",can be reversed by TVA at 20 μM
same,TVA level sufficient to reverse suppression of CD8+ T cells by acetate,"[2]; acetate at 20 mM, TNF-α",≤ 2 µM
same,p-CREB and p-STAT1 levels in tumor-infiltrating CD8+ T cells,[3]; B16F10 tumors from syngeneic mice fed on TVA,Increased p-CREB and p-STAT1 levels
same,CD4+ T cell population in TILs,"[3]; TVA diet, B16F10 tumors",not altered
same,tumor-infiltrating populations of neutrophils and monocytes,"[3]; TVA diet, B16F10 tumors",markedly increases tumor-infiltrating populations of neutrophils and monocytes
same,conventional CD4+ T cell or CD4+Foxp3+ Treg cell populations,"[3]; TVA diet, spleens, dLNs and tumors of B16F10 tumor-bearing mice",has no effects on conventional CD4^+ T cell
same,cytokine expression in tumor-infiltrating CD8+ T cells,"[3]; dietary TVA, B16F10 tumors","increased expression levels of cytokines including IL-2, TNF-α, and IFN-γ"
same,exhaustion of CD8+ T cells (PD-1 and LAG-3 expression),"[3]; dietary TVA, tumors and spleens, not dLNs",reduces exhaustion of CD8^+ T cells in tumors and spleens
same,CD8+ T cell population in tumor-infiltrating lymphocytes (TILs),"[3]; enriched diet, B16F10 tumors",increased CD8^+ T cell population
same,Mouse CD4^+ T cell IL-2 level changes after treatment,Mouse CD4^+ T cell,155.6%
same,Mouse CD8^+ T cell IL-2 level changes after treatment,Mouse CD8^+ T cell,193.6%
same,IL-2 production of primary CD4+ T cells,primary CD4^+ T cells,increased IL-2 production
same,"TNF-α, IFN-γ and apoptosis of primary CD4+ T cells",primary CD4^+ T cells,non-altered expression of TNF-α and IFN-γ or apoptosis
same,cAMP levels in CD8+ T cells,[4],elevates cAMP levels
same,p-CREB level (phospho-antibody array),"[5]; 40 min, 2 h and 6 h post-TVA treatment, reduces at 24 h",Increased p-CREB level
same,p-STAT1 level (phospho-antibody array),[5]; 2 h and 24 h TVA treatment,elevated
same,phosphorylation level of AKT (p-AKT),[5]; 2 h post-TVA treatment,reduced phosphorylation level of AKT (p-AKT)
same,phosphorylation level of STAT3 (p-STAT3),[5]; 2 h post-TVA treatment,increased phosphorylation level of STAT3 (p-STAT3)
same,p-AKT level,[5]; 24 h post-TVA treatment,increased p-AKT level at 24 h
same,"anti-tumor immunity (CD8+ T cells, dendritic cells, Treg, TAMs)",[6],enhances anti-tumor immunity
same,"tumorigenesis and tumor progression (tumor multiplicity, pathology)",colon tumors,Suppresses Tumorigenesis and Tumor Progression
same,GO enrichment of altered gene bodies (KAS-seq),human CD8^+ T cells,G-protein coupled receptor (GPCR) activities among the top-enriched ontologies
